# Assay results: US11952358B2, “Flavan-3-ol analogs and anti-inflammatory activity” (Hong Kong Baptist University, priority 2021, dated 2024)
# Tests used:
# RAW 264.7 cells = assay: CCK8 cell viability assay; assay type: cell-based, mouse; conditions: 100 μM, 24 h
# Experimental: (§1) RAW 264.7 cells were plated in a 96-well plate and treated with each compound (0, 25 μM, 50 μM and 100 μM) for 24 h. The viability of cells was tested by CCK8 assay. Data from three times independent experiments were expressed as means±SD. *P<0.05 compared with the control group for compound 3a-3j.
# RAW 264.7 cells were plated in a 96-well plate and treated with each compound (0, 25 μM, 50 μM and 100 μM) for 24 h. The viability of cells was tested by CCK8 assay. Data from three times independent experiments were expressed as means±SD. *P<0.05 compared with the control group for compound 3k-3t.
# RAW 264.7 cells were plated in a 96-well plate and treated with each compound (0, 25 μM, 50 μM and 100 μM) for 24 h. The viability of cells was tested by CCK8 assay. Data from three times independent experiments were expressed as means±SD. *P<0.05 compared with the control group for compound 3u-3ad.
# as §1, with “3ae-3ag′.” for “3a-3j.”
# Cell Viability Assay The CCK8 assay was used to evaluate the effect of each flavan-3-ol on the viability of RAW264.7 cells. Cells were plated into 96-well plates at a density of 2×10^5 cells/well in medium and cultured overnight. For formal experiments, cells were treated with different concentrations of flavan-3-ols (25, 50, and 100 μM). After 24 h, 20 μl CCK8 solution (cat #A311-01/02, Vazyme Biotech Co., Ltd., Nanjing, China) was added into the medium and incubated for 45 min. The absorbance was measured at 450 nm.
# To evaluate the anti-inflammatory effects of these newly synthesized flavan-3-ols, RAW 264.7 cells (mouse monocyte/macrophage cell) were used as the in vitro model. First, CCK-8 (Cell Counting Kit-8) assay was performed to test the effects of these newly synthesized flavan-3-ols on cell viability (FIG. 9a-d). RAW 264.7 cells were treated with the newly synthesized flavan-3-ols ranging from 25 to 100 μM for 24 h. As shown in […], treatment with each compound at 25 and 50 μM for 24 h had no effect on the cell viability of RAW 264.7 cell. […] Therefore, the final concentration of each compound used in the following experiments were no more than 100 μM, and compound concentrations at 25 and 50 μM were used in the further experiments.
# IL-1β = assay: ELISA of IL-1β secretion from LPS-stimulated RAW 264.7 cells; assay type: cell-based, mouse; conditions: compound 50 μM 24 h, then LPS 1 μg/mL 2 h (FIG. 8)
# Experimental: RAW 264.7 cells were pretreated with each compound (50 μM) for 24 h followed by LPS (1 μg/mL) stimulation for another 2 h. The concentrations of IL-1β in RAW 264.7 cell culture supernatants were measured by ELISA kits and the inhibition rate of compound on the secretion of each pro-inflammatory cytokine was calculated. Data from three independent experiments were expressed as means±SD. *P<0.05, **P<0.01 compared with LPS-stimulated group.
# Cell culture The RAW 264.7 cell line was purchased from the Cell Bank of Shanghai Institute of Biochemistry & Cell Biology at the Chinese Academy of Sciences (Shanghai, China) and cultured in DMEM supplemented with 10% (v/v) fetal bovine serum (FBS), 100 U/ml penicillin and 100 […], in a stable environment with 5% CO2 at 37° C. Before used in the following in vitro experiments, RAW 264.7 cells were pretreated with synthesized flavan-3-ol (25, 50 μM) for 24 h followed by LPS (1 μg/mL) stimulation for another 2 h.
# Enzyme-Linked Immunosorbent Assay (ELISA) RAW 264.7 cells were treated with these synthesized flavan-3-ols (25, 50 μM) for 24 h followed by LPS (1 μg/mL) stimulation for another 2 h and the culture supernatant was collected. The concentrations of IL-1β, IL-6 and TNF-α in the culture supernatant of RAW 264.7 cells were determined according to the manufacturer's instructions of the Duo-set enzyme linked immune sorbent assay kits, purchased from R&D Systems Co. Ltd. (Minneapolis, MN, USA).
# The increased pro-inflammatory cytokines production in RAW 264.7 cells has been reported to play an influential role in the inflammation response. To evaluate the anti-inflammatory effects of these flavan-3-ols in vitro, ELISA kits were employed to investigate their effects on the LPS (lipopolysaccharide)-induced pro-inflammatory cytokines production of RAW 264.7 cells. After treating with the flavan-3-ols (25 and 50 μM) and stimulated by LPS, the levels of three main pro-inflammation cytokines including IL-1β ([…]), IL-6 (interleukin-6), and TNF-α (tumor necrosis factor-α) in culture supernatant from RAW 264.7 cells were measured by ELISA kits, and then the inhibition rates of the flavan-3-ols on the secretion of each pro-inflammatory cytokine were calculated by the formula shown as follows.
# [formula] In this formula, “L” refers to “the pro-inflammatory cytokine level in cell culture supernatant of LPS-induced group (L)” and “Lc” refers to “the pro-inflammatory cytokine level in cell culture supernatant of compound-treated group (Lc)”. Using this calculation, the reduced levels of pro-inflammation cytokines in the compound treated group would give higher values, which reflect higher inhibition rates.
# FIG. 4a-c show the effect of flavan-3-ols on pro-inflammatory cytokine secretion in vitro. RAW 264.7 cells were pretreated with each compound (25, 50 μM) for 24 h followed by LPS (1 μg/mL) stimulation for another 2 h. The concentrations of IL-1β, IL-6, TNF-α in RAW 264.7 cell culture supernatants were measured by ELISA kits and the inhibition rate of compound on the secretion of each pro-inflammatory cytokine was calculated.
# [1] = system: LPS-stimulated RAW 264.7 cells; assay: RNA-sequencing analysis with GO and KEGG enrichment; assay type: cell-based, mouse; conditions: for inflammation-related genes downregulated: KEGG-classified inflammation-related genes
# Experimental: RNA-sequencing analysis RAW 264.7 cells were treated with each flavan-3-ol (25, 50 μM) for 24 h followed by LPS (1 μg/mL) stimulation for another 2 h. Cells were collected and then directly prepared for cDNAs amplification and RNA-Seq library construction. Total RNA was isolated with TRIzol reagent from each group. A complementary DNA library was prepared and sequencing was performed according to the Illumina standard protocol developed by Suzhou GENEWIZ Biological Technology Co., Ltd. (https://www.genewiz.com). […] After filtering, reference genome and gene model annotation files were downloaded from a genome website browser (NCBI/UCSC/Ensembl). Indexes of the reference genome were built using Bowtie v2.0.6 and paired-end clean reads were aligned to the reference genome using TopHat v2.0.9. Bowtie was used for a BWT (Burrows-Wheeler Transformer) algorithm for mapping reads to the genome and Tophat can generate a database of splice junctions based on the gene model annotation file and thus achieve a better mapping result than other non-splice mapping tools. For the quantification of gene expression level, HTSeq V0.6.1 was used to count the read numbers mapped for each gene. The RPKM of each gene was calculated based on the gene read counts mapped to this gene. A differential expression analysis was performed using the DESeq R package (1.10.1). For clustering, the inventors clustered different samples to see the correlation using hierarchical clustering distance method with the function of heatmap, SOM (Self-organization mapping) and k means using silhouette coefficient to adapt the optimal classification with default parameter in R. The complete RNA-seq datasets in this manuscript captioned has been deposited at GEO database (http://www.ncbi.nlm.nih.gov/geo/) under accession ID GSE181052.
# Gene ontology (GO) and KEGG enrichment analysis GO enrichment analysis of differentially expressed genes was implemented by the GOseq R Package, in which gene length bias was corrected. GO analysis was performed with the DAVID online tool (https://david.ncifcrf.gov/). Top GO categories were selected according to the P-values. Pathways of differentially expressed genes were analyzed by the KEGG database (http://www.kegg.jp/kegg/). The inventors used KOBAS software to test the statistical enrichment of differential expression genes in KEGG pathways.
# RNA-seq analysis of downstream genes regulated by flavan-3-ols. […] RNA-seq analysis was performed to further study the effects of compounds 3m, 3o, 3p, 3ae and 3ag on gene transcriptional pathways related to inflammation. RAW 264.7 cells were used in the RNA-seq analysis, in which cells were pretreated with each compound (50 μM) for 24 h followed by LPS (1 μg/mL) stimulation for another 2 h. […] Next, the inventors focused on genes related to inflammatory reactions and inflammation-related diseases (inflammation-related genes) based on the gene and pathway classification of Kyoto Encyclopedia of Genes and Genomes (KEGG database).
# To further analyze the functional distribution of differentially-expressed genes in relation to different biological processes, cellular components and molecular functions, gene ontology (GO) enrichment analysis was performed. The histogram of GO enrichment of differentially-expressed genes was presented.
# Furthermore, to determine the biochemical metabolic pathways and signal transduction pathways involved in differentially expressed genes regulated by compound 3ag, KEGG pathway analysis was then performed.
# [2] = 50 μM, vs LPS-stimulated group, of a total of 1915 genes
melting point,Structure (SMILES),effect on cell viability (RAW 264.7 cells),inhibition rate of IL-1β secretion compared with enantiomer and racemic form (IL-1β),"inflammation-related genes downregulated ([1]; 50 μM, vs LPS-stimulated group)",other results
110 to 111 °C,"O[C@H]1Cc2cc(F)ccc2O[C@@H]1c1ccccc1 [3ad, (2R,3S)-6-fluoro-2-phenylchroman-3-ol]",reduced viability,,,
126 to 127 °C,"O[C@H]1Cc2cc(Cl)cc(Cl)c2O[C@@H]1c1ccccc1 [3ag, (2R,3S)-6,8-dichloro-2-phenylchroman-3-ol]",,higher inhibition rates than their enantiomers,40 genes,"genes differentially regulated ([1]; 50 μM 24 h, then LPS 1 μg/mL 2 h, vs untreated LPS-stimulated group): 1098 genes; genes downregulated ([1]; 50 μM, vs LPS-stimulated group): 954 genes; genes upregulated ([1]; 50 μM, vs LPS-stimulated group): 144 genes; genes downregulated, share of genes expressed [1, 2]: 49.8%; genes upregulated, share of genes expressed [1, 2]: 7.5%; GO enrichment of downregulated genes ([1]; vs LPS-induced group (FIG. 6)): associated with inflammatory response (GO: 0006954) and cellular response to lipopolysaccharide (GO: 0071222); KEGG pathways of downregulated genes ([1]; vs LPS-induced group (FIG. 7a-b)): IL-17 signaling pathways, PI3K-Akt signaling pathway and TNF signaling pathway"
,"O[C@H]1Cc2c(F)cc(F)cc2O[C@@H]1c1ccc(F)c(F)c1 [3ai, (2R,3S)-2-(3,4-difluorophenyl)-5,7-difluorochroman-3-ol]",reduced viability,,,
114 to 115 °C,"O[C@H]1Cc2ccccc2O[C@@H]1c1ccc(C(F)(F)F)cc1 [3i, (2R,3S)-2-(4-(trifluoromethyl)phenyl)chroman-3-ol]",reduced viability,,,
141 to 142 °C,"O[C@H]1Cc2ccccc2O[C@@H]1c1ccc2ccccc2c1 [3m, (2R,3S)-2-(naphthalen-2-yl)chroman-3-ol]",,higher inhibition rates than their enantiomers,downregulated parts of inflammation-related genes,
94 to 95 °C,"O[C@H]1Cc2ccccc2O[C@@H]1c1cccs1 [3n, (2S,3S)-2-(thiophen-2-yl)chroman-3-ol]",reduced viability,,,
80 to 81 °C,"O[C@H]1Cc2ccccc2O[C@@H]1c1ccco1 [3o, (2S,3S)-2-(furan-2-yl)chroman-3-ol]",,higher inhibition rates than their enantiomers,downregulated parts of inflammation-related genes,
